Results reported in US20090227606A1, “Methods for Preventing or Treating Acute and Chronic Pain” (priority 2006, published 2009).
Entries after “also recorded” stand apart in the source; their conditions may differ.

Assays:
GLT-1 mRNA = assay: Real Time RT-PCR of ipsilateral lumbar spinal cord, GLT-1 mRNA; assay type: in vivo, rat; details: daily intrathecal
Method: Tissue was collected from 4-5 rats/group on postoperative days 4 or 12. In order to obtain both mRNA and protein from the same tissue sample, the L5 region of the spinal cord (ipsilateral to the injury), was isolated and placed in PBS supplemented with protease inhibitor cocktail (1:1000, Sigma Chemical Co., St. Louis, Mo.) and RNase inhibitor (0.75 U/μL Ambion, Austin, Tex.). Samples were sonicated in five one-second bursts at half-maximal power, centrifuged at 6500 rpm for 15 minutes at 4° C. Protein-containing supernatants were collected and stored at −80° C. until further processing by Western blot analysis. […]
Real time RT-PCR reactions were carried out in a total reaction volume of 25 μL containing a final concentration of 1.5 U Platinum Taq DNA polymerase (Invitrogen Corporation, Carlsbad, Calif.); 20 mM Tris HCl (pH 8.4); 50 mM KCl; 3 mM MgCl2; 200 μM dGTP, dCTP, and dATP; 400 μM dUTP and 1 U of UDG (uracyl DNA glycosylase); 900 nM of forward and reverse primers; 300 nM Taqman probe; and 5 μL of a 10-fold dilution of cDNA (50 ng) from the RT step. The iCycler™ Multicolor Real-Time PCR detection system (Bio-Rad, Hercules, Calif.) was used to quantify PCR product. […] The relative fold change from control was then expressed by calculation of 2^−ΔΔC^T for each sample and the results are expressed as the group mean fold change±SEM.

astrocytic activation = details: DeLeo et al. 1987; cited from earlier work
GLAST = assay: Immunocytochemistry of cultured astrocytes, GLAST staining; assay type: cell-based, rat; details: treated astrocytes
Method: Primary astrocyte-enriched cultures were plated onto sterile 18 mm glass coverslips. After three washes in PBS, cells were permeabilized in 5% glacial acetic acid/95% ethanol (acid-alcohol) for 10 minutes. After washing, cells were incubated in a 1% normal goat serum for 30 minutes and then overnight at 4° C. in primary mouse anti-GFAP (1:500), rabbit anti-GLT-1 (1:500) or guinea pig anti-GLAST (1:2000). The following day, cells were washed and then incubated for 2 hours at room temperature with goat anti-mouse Alexa Fluor™-555 (Invitrogen Corporation, Carlsbad, Calif.) goat anti-guinea pig Alexa Fluor™-488 (Invitrogen Corporation, Carlsbad, Calif.) or goat anti-rabbit Alexa Fluor™-488 (Invitrogen Corporation, Carlsbad, Calif.; all at 1:250). Finally, cells were post-fixed in acid-alcohol and mounted with Vectashield (Vector Labs, Burlingame, Calif.) containing 4′,6-diamidino-2-phenylindole dihydrochloride hydrate (DAPI, Sigma Chemical Co., St Louis, Mo.), in order to visualize cell nuclei. The sections were examined with a fluorescence microscope, and images were captured with a Q-Fire cooled camera (Olympus, Melville, N.Y.). Confocal microscopy was also performed using a Zeiss LSM 510 Meta confocal microscope (Carl Zeiss AG, Oberkochen, Germany). Merged color images were processed using Adobe Photoshop 7.0 (Adobe Systems, San Jose, Calif.).

GLT-1 = assay: Western blot of cultured astrocytes, GLT-1 protein; assay type: cell-based, rat
Method: After approximately 14 days (2 days after subplating into plates, DIV 14) astrocytes had formed a confluent monolayer. […] Phase contrast microscopy was then carried out in order to assess the morphology of cells after the various treatments. Length of astrocyte processes was quantified by measuring all processes in 2-3 phase contrast images/group by an independent observer, blinded to the treatment groups using Image J v1.34s (National Institutes of Health, Bethesda, Md.).
Cells were scraped into PBS containing a protease inhibitor cocktail (1:1000, Sigma Chemical Co., St. Louis, Mo.) and then lysed by sonication in 5 one-second pulses. The samples were stored at −80° C. until use. Total protein was determined using the Lowry method (DC assay, Bio-Rad, Hercules, Calif.). Forty micrograms of protein (diluted in sample buffer and boiled) and standard protein markers were subjected to SDS/7.5% polyacrylamide gel electrophoresis and transferred to polyvinylidene difluoride (PVDF) membranes. Nonspecific binding was blocked by incubation with 5% milk/PBS-Tween at room temperature for 1 hour followed by incubation overnight at 4° C. with rabbit anti-GLT-1 (1:500) or guinea pig anti-GLAST (1:2500). The following day, blots were washed and incubated for 1 hour at room temperature with goat anti-rabbit HRP-conjugated secondary (1:3000) or goat anti-guinea pig HRP-conjugated secondary antibody (1:5000) and visualized with enhanced chemiluminescence (ECL). Images were obtained using the Typhoon Imaging System (Amersham-GE Healthcare, Piscataway, N.J.). Finally, blots were incubated for 15 minutes in stripping buffer and reprobed with a monoclonal mouse anti-β-actin antibody (1:10,000) as a loading control. Densitometric analysis was performed using ImageQuant 5.2 (Molecular Dynamics, GE Healthcare, Piscataway, N.J.).

[1] = system: cyclic-adenosine-5′,3′-monophosphate (cAMP)-specific phosphodiesterase (PDE IV); details: literature; cited from earlier work
adenosine transport = details: literature; cited from earlier work

In the case of `CCCn1cnc2c1c(=O)n(CCCCC(C)=O)c(=O)n2C` [propentofylline], the “GLT-1 mRNA in lumbar spinal cord” value (GLT-1 mRNA; day 4 post-transection) is listed as “enhanced; also recorded: significantly increased levels of GLT-1 mRNA”, the “GLT-1 mRNA in lumbar spinal cord” value (GLT-1 mRNA; day 12 post-transection) is listed as “enhanced; also recorded: significantly increased levels of GLT-1 mRNA” and the astrocytic activation (astrocytic activation) is listed as “attenuate astrocytic activation”. The GLAST staining (GLAST) was “slightly increased GLAST staining”, the “GLT-1 protein level, in words” value (GLT-1; 3 or 7 days, normalized to β-actin) was “dose-dependently increased levels of GLT-1 protein” and the “increase in GLT-1 protein levels” value (GLT-1; 7 days, high dose) was 100 fold. For the same compound, the “increase in GLT-1 protein levels” value (GLT-1; after 3 days of treatment) was “about 10 fold”, the “PDE IV” value [1] was “inhibit” and the adenosine transport (adenosine transport) was “inhibit adenosine transport”.
